From patent US20210246121A1, “SOLID FORMS OF APOL1 INHIBITOR AND METHODS OF USING SAME” (Vertex Pharmaceuticals Incorporated, priority 2020, published 2021) come the findings set out here.

The series is described as follows: relative thermodynamic stability of solid forms of Compound I as a function of water activity. The format is physicochemical. The note with it: from about 0 to 0.5 or 0.6 water activity at room temperature.

For the molecule `O=C(CCc1c(-c2ccc(F)cc2)[nH]c2ccccc12)N[C@@H]1C(=O)NC[C@H]1O` [Compound 1 Form B], the “thermodynamic stability relative to other forms of the compound” value is on record as “most thermodynamically stable form”.
